In brackets after ≈: the same amount, converted by molar mass. Activity calls are given as the source filed them. No cut-off for these calls is given here.
What was measured:
Staphylococcus aureus [1] = assay: Antibacterial activity against methicillin-resistant Staphylococcus aureus CGMCC 1.12409 assessed as reduction in bacterial growth in presence of Na+; type: functional
Staphylococcus aureus [2] = assay: Antibacterial activity against Staphylococcus aureus CGMCC1.8721 assessed as reduction in metabolic activity at 4 times MIC by Alamar Blue assay; type: functional; design: scale not given: the % may be the effect or the level left
Staphylococcus aureus [3] = assay: Antibacterial activity against methicillin-resistant Staphylococcus aureus ATCC 33591 assessed as reduction in bacterial growth in presence of Na+; type: functional
Staphylococcus aureus [4] = assay: Antibacterial activity against methicillin-resistant Staphylococcus aureus ATCC 43300 assessed as reduction in bacterial growth in presence of K+; type: functional
Staphylococcus aureus [5] = assay: Antibacterial activity against methicillin-resistant Staphylococcus aureus CGMCC 1.12409 assessed as reduction in bacterial growth in presence of Fe2+; type: functional
Staphylococcus aureus [6] = assay: Antibacterial activity against Staphylococcus aureus CGMCC1.8721 assessed as reduction in bacterial growth in presence of Ca2+; type: functional
Staphylococcus aureus [7] = assay: Antibacterial activity against Staphylococcus aureus CGMCC1.8721 assessed as reduction in bacterial growth in presence of K+; type: functional
Staphylococcus aureus [8] = assay: Antibacterial activity against methicillin-resistant Staphylococcus aureus ATCC 33591 assessed as reduction in bacterial growth in presence of K+; type: functional
Cell membrane [9] = assay: Disruption of cell membrane integrity in Staphylococcus aureus CGMCC1.8721 assessed as increase in red fluorescence at 4 times MIC by SYTO 9/PI staining based confocal microscopic analysis; type: subcellular
Staphylococcus aureus [10] = assay: Antibiofilm activity against Staphylococcus aureus CGMCC1.8721 assessed as inhibition of biofilm formation at 1 times MIC; type: functional
Staphylococcus aureus [11] = assay: Antibacterial activity against Methicillin-resistant Staphylococcus aureus CGMCC1.8721 infected in mouse skin infection model assessed as reduction in bacterial clones at 5 to 10 mg/kg, sc; type: functional, organism-based; conditions: dose 5-10 mg/kg
[12] = Cytotoxicity against human HEK293T cells assessed as cell viability upto 40 uM relative to control; type: toxicity, cell-based, HEK-293T; conditions: read-out: Activity
Staphylococcus aureus [13] = assay: Antibacterial activity against methicillin-resistant Staphylococcus aureus CGMCC 1.12409 assessed as reduction in bacterial growth; type: functional
Staphylococcus aureus [14] = assay: Antibacterial activity against methicillin-resistant Staphylococcus aureus CGMCC 1.12409 assessed as reduction in bacterial growth in presence of Mg2+; type: functional
Staphylococcus aureus [15] = assay: Antibacterial activity against methicillin-resistant Staphylococcus aureus CGMCC 1.12409 assessed as reduction in bacterial growth in presence of Ca2+; type: functional
Staphylococcus aureus [16] = assay: Antibacterial activity against methicillin-resistant Staphylococcus aureus ATCC 43300 assessed as reduction in bacterial growth in presence of Mg2+; type: functional
Staphylococcus aureus [17] = assay: Antibacterial activity against methicillin-resistant Staphylococcus aureus ATCC 43300 assessed as reduction in bacterial growth in presence of Zn2+; type: functional
Cell membrane [18] = assay: Disruption of cell membrane integrity in Staphylococcus aureus CGMCC1.8721 assessed as appearance of uneven cell surface at 1 to 4 times MIC by scanning electron microscopic analysis; type: subcellular
Staphylococcus aureus [19] = assay: Antibacterial activity against methicillin-resistant Staphylococcus aureus ATCC 43300 assessed as reduction in bacterial growth in presence of Ca2+; type: functional
Staphylococcus aureus [20] = assay: Antibiofilm activity against Staphylococcus aureus CGMCC1.8721 assessed as biofilm eradication; type: functional, organism-based
Staphylococcus aureus [21] = assay: Antibacterial activity against Staphylococcus aureus CGMCC1.8721 assessed as reduction in bacterial growth in presence of phosphatidylcholine; type: functional, organism-based
Staphylococcus aureus [22] = assay: Bactericidal activity against methicillin-resistant Staphylococcus aureus ATCC 33591 assessed as reduction in bacterial growth; type: functional
Staphylococcus aureus [23] = assay: Bactericidal activity against methicillin-resistant Staphylococcus aureus ATCC 43300 assessed as reduction in bacterial growth; type: functional
Staphylococcus aureus [24] = assay: Antibacterial activity against methicillin-resistant Staphylococcus aureus CGMCC 1.12409 assessed as reduction in bacterial growth in presence of Zn2+; type: functional
Staphylococcus aureus [25] = assay: Antibiofilm activity against Staphylococcus aureus CGMCC1.8721 assessed as inhibition of biofilm formation; type: functional, organism-based
Staphylococcus aureus [26] = assay: Antibacterial activity against methicillin-resistant Staphylococcus aureus ATCC 43300 assessed as reduction in bacterial growth in presence of Fe2+; type: functional
A549 [27] = assay: Cytotoxicity against human A549 cells upto 20 uM; type: functional, cell-based
Staphylococcus aureus [28] = assay: Antibacterial activity against methicillin-resistant Staphylococcus aureus ATCC 43300 assessed as reduction in bacterial growth in presence of Fe3+; type: functional
Staphylococcus aureus [29] = assay: Antibiofilm activity against Staphylococcus aureus CGMCC1.8721 assessed as inhibition of biofilm formation at 8 times MIC; type: functional
Staphylococcus aureus [30] = assay: Antibacterial activity against Staphylococcus aureus CGMCC1.8721 assessed as reduction in bacterial growth in presence of Zn2+; type: functional
HepG2 = assay: Cytotoxicity against human HepG2 cells upto 20 uM; type: functional, cell-based
Staphylococcus aureus [31] = assay: Antibacterial activity against Staphylococcus aureus CGMCC1.8721 assessed as reduction in bacterial growth in presence of Mg2+; type: functional
Staphylococcus aureus [32] = assay: Antibacterial activity against methicillin-resistant Staphylococcus aureus ATCC 33591 assessed as reduction in bacterial growth; type: functional
Staphylococcus aureus [33] = assay: Antibacterial activity against methicillin-resistant Staphylococcus aureus ATCC 33591 assessed as reduction in bacterial growth in presence of Fe3+; type: functional
Staphylococcus aureus [34] = assay: Antibacterial activity against Staphylococcus aureus CGMCC1.8721 assessed as reduction in bacterial growth in presence of Fe2+; type: functional
Staphylococcus aureus [35] = assay: Bactericidal activity against Staphylococcus aureus CGMCC1.8721 assessed as reduction in bacterial growth; type: functional
Staphylococcus aureus [36] = assay: Antibacterial activity against methicillin-resistant Staphylococcus aureus CGMCC 1.12409 assessed as reduction in bacterial growth in presence of K+; type: functional
Staphylococcus aureus [37] = assay: Antibacterial activity against Staphylococcus aureus CGMCC1.8721 assessed as reduction in bacterial growth in presence of Na+; type: functional
Staphylococcus aureus [38] = assay: Antibacterial activity against methicillin-resistant Staphylococcus aureus ATCC 33591 assessed as reduction in bacterial growth in presence of Ca2+; type: functional
Staphylococcus aureus [39] = assay: Bactericidal activity against methicillin-resistant Staphylococcus aureus CGMCC 1.12409 assessed as reduction in bacterial growth; type: functional
A549 [40] = assay: Cytotoxicity against human A549 cells assessed as cell viability upto 40 uM relative to control; type: functional; conditions: up to 40 µM
Staphylococcus aureus [41] = assay: Antibacterial activity against methicillin-resistant Staphylococcus aureus CGMCC 1.12409 assessed as reduction in bacterial growth in presence of Fe3+; type: functional
Cell membrane [42] = assay: Induction of membrane depolarization in Staphylococcus aureus CGMCC1.8721 assessed as increase in fluorescence intensity measured upto 30 mins by DiSC35 dye-based fluorescence assay; type: subcellular; conditions: dose 2-8 µg/ml
Staphylococcus aureus [43] = assay: Antibacterial activity against Staphylococcus aureus CGMCC1.8721 assessed as reduction in bacterial growth; type: functional
Staphylococcus aureus [44] = assay: Antibacterial activity against Methicillin-resistant Staphylococcus aureus CGMCC1.8721 infected in mouse skin infection model assessed as reduction in bacterial load at 5 mg/kg, sc; type: functional; design: scale not given: the % may be the effect or the level left
HEK-293T = assay: Cytotoxicity against HEK293T cells upto 20 uM; type: toxicity, cell-based; conditions: human

`CCNCc1ccc2[nH]cc(C[C@@H](C)[C@H]3CC[C@H]4[C@@H]5CC[C@@H]6C[C@H](O)CC[C@]6(C)[C@H]5CC[C@]34C)c2c1` gave an MIC (Staphylococcus aureus [1]) of 2 µg/mL, an Activity (Staphylococcus aureus [2]) of 75% and an MIC (Staphylococcus aureus [3]) of 2 µg/mL. For the same compound, the MIC (Staphylococcus aureus [4]) was 1 µg/mL, the MIC (Staphylococcus aureus [5]) was 2 µg/mL and the MIC (Staphylococcus aureus [6]) was 1 µg/mL. The MIC (Staphylococcus aureus [7]) was 1 µg/mL, the MIC (Staphylococcus aureus [8]) was 2 µg/mL and the Activity (Cell membrane [9]) was “Active”. The “inhibition (INH)” value (Staphylococcus aureus [10]) was 64.1%, the AC30 (Staphylococcus aureus [11]) was “Active” and the viability at up to 40 µM [12] was > 70%. For the same compound, the MIC (Staphylococcus aureus [13]) was 2 µg/mL (≈ 4.08 µM), the MIC (Staphylococcus aureus [14]) was 2 µg/mL and the MIC (Staphylococcus aureus [15]) was 2 µg/mL. The MIC (Staphylococcus aureus [16]) was 1 µg/mL, the MIC (Staphylococcus aureus [17]) was 1 µg/mL and the Activity (Cell membrane [18]) was “Active”. The MIC (Staphylococcus aureus [19]) was 1 µg/mL, the Activity (Staphylococcus aureus [20]) was “Active” and the Activity (Staphylococcus aureus [21]) was “inactive”. The MBC (Staphylococcus aureus [22]) was 4 µg/mL (≈ 8.15 µM), the MBC (Staphylococcus aureus [23]) was 2 µg/mL (≈ 4.08 µM) and the MIC (Staphylococcus aureus [24]) was 2 µg/mL. For the same compound, the Activity (Staphylococcus aureus [25]) was “Dose-dependent-effect”, the MIC (Staphylococcus aureus [26]) was 1 µg/mL and the Activity (A549 [27]) was “Active”. For the same compound, the MIC (Staphylococcus aureus [28]) was 1 µg/mL, the “inhibition (INH)” value (Staphylococcus aureus [29]) was 92.4% and the MIC (Staphylococcus aureus [30]) was 1 µg/mL. For the same compound, the Activity (HepG2) was “Active”, the MIC (Staphylococcus aureus [31]) was 1 µg/mL and the MIC (Staphylococcus aureus [32]) was 2 µg/mL (≈ 4.08 µM). For the same compound, the MIC (Staphylococcus aureus [33]) was 2 µg/mL, the MIC (Staphylococcus aureus [34]) was 1 µg/mL and the MBC (Staphylococcus aureus [35]) was 2 µg/mL (≈ 4.08 µM). The MIC (Staphylococcus aureus [36]) was 2 µg/mL, the MIC (Staphylococcus aureus [37]) was 1 µg/mL and the MIC (Staphylococcus aureus [38]) was 2 µg/mL. For the same compound, the MBC (Staphylococcus aureus [39]) was 4 µg/mL (≈ 8.15 µM), the Activity (A549 [40]) was >70% and the MIC (Staphylococcus aureus [41]) was 2 µg/mL. The Activity (Cell membrane [42]) was “Dose-dependent-effect”, the MIC (Staphylococcus aureus [43]) was 1 µg/mL (≈ 2.04 µM) and the Activity (Staphylococcus aureus [44]) was 67%. For the same compound, the Activity (HEK-293T) was “Non-toxic”.

Reference: ChEMBL document CHEMBL6078711, “Design, synthesis, and biological evaluation of steroidal indole derivatives as membrane-targeting antibacterial candidates” (Eur J Med Chem, 2025)
